Reference: patent US20070167511A1, “Medicinal composition for prevention or treatment of overactive bladder accompanying nervous disorder” (KISSEI PHARMACEUTICAL CO,. LTD., priority 2004, published 2007)

System: rat spinal cord injured OAB model
Assay: Urodynamic study (cystometry) in rat spinal cord injured OAB model
Assay type: in vivo
Conditions: conscious female rats with spinal cord transection at Th10, intravenous injection 0.1 mg/kg
Experimental: Efficacy on Urodynamic Study in Rat Spinal Cord Injured OAB Model
In ether anesthetized female rats, spinal cord transection was performed at the level of Th10. About 1 month after the spinal cord transection, each rat was anesthetized with pentobarbital and a catheter filled with saline was implanted into the urinary bladder, ligated, secured on the back of the neck and closed. Seven days after the bladder catheter implantation, another catheter filled with heparin-containing saline was implanted into the […], and ligated, secured on the back of the neck and closed. The next day, cystometry was performed in the conscious rat under free moving. Saline was instilled into the urinary bladder at a rate of 12 mL/hr. A drug was injected through the […] catheter that was secured on the back of the neck. […] Intravenous injection of compound 1 (0.1 mg/kg) prolonged the micturition interval by about 20% (FIG. 1) and decreased the frequency of involuntary contraction in filling phase by 20% (FIG. 2) in the same model.

C[C@H](Cc1cc2c(c(C(N)=O)c1)N(CCCO)CC2)NCCOc1ccccc1OCC(F)(F)F [compound 1, (−)-1-(3-hydroxypropyl)-5-((2R)-2-{[2-({2-[(2,2,2-trifluoroethyl)oxy]phenyl}oxy)ethyl]amino}propyl)-2,3-dihydro-1H-indol-7-yl-carboxamide]
prolongation of the micturition interval (versus value before drug administration (FIG. 1)): about 20% | decrease of the frequency of involuntary contraction in filling phase (versus value before drug administration (FIG. 2)): 20%
